Patent EP0726261A1, “Herbidical 1,2,4 thiadiazoles” (American Cyanamid Company, priority 1995, dated 1996)

Key:
Format in all cases: in vivo
Avena fatua [1] = assay: Herbicidal activity, preemergence test (Example 66); set-up: key: A rating of 0 indicates growth as untreated control; a rating of 9 indicates death; settings: pre; 1000 g/ha; assessed visually twenty days after spraying
Procedure, shortened: (§1)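 Visual 0-9 score (0 = growth as untreated control, 9 = death; one unit ≈ 11% more effect) taken twenty days post-spray. Compound was applied at 1000 g a.i./ha in 900 L/ha water, diluted from acetone containing 0.4% Triton X-155, to sown soil (pre) or seedlings (post).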

Beta vulgaris [2] = assay: as above; set-up: key: A rating of 0 indicates growth as untreated control; a rating of 9 indicates death; settings: pre; 1000 g/ha; assessed visually twenty days after spraying
Procedure, shortened: as §1

Echinochloa crus-galli [3] = assay: as above; set-up: key: A rating of 0 indicates growth as untreated control; a rating of 9 indicates death; settings: pre; 1000 g/ha; assessed visually twenty days after spraying
Procedure, shortened: as §1

Glycine max [4] = assay: as above; set-up: key: A rating of 0 indicates growth as untreated control; a rating of 9 indicates death; settings: pre; 1000 g/ha; assessed visually twenty days after spraying
Procedure, shortened: as §1

Linum usitatissimum [5] = assay: as above; set-up: key: A rating of 0 indicates growth as untreated control; a rating of 9 indicates death; settings: pre; 1000 g/ha; assessed visually twenty days after spraying
Procedure, shortened: as §1

Oryza sativa [6] = assay: as above; set-up: key: A rating of 0 indicates growth as untreated control; a rating of 9 indicates death; settings: pre; 1000 g/ha; assessed visually twenty days after spraying
Procedure, shortened: as §1

Sinapsis alba [7] = assay: as above; set-up: key: A rating of 0 indicates growth as untreated control; a rating of 9 indicates death; settings: pre; 1000 g/ha; assessed visually twenty days after spraying
Procedure, shortened: as §1

Zea mays [8] = assay: as above; set-up: key: A rating of 0 indicates growth as untreated control; a rating of 9 indicates death; settings: pre; 1000 g/ha; assessed visually twenty days after spraying
Procedure, shortened: as §1

Glycine max [9] = assay: Herbicidal activity, postemergence test (Example 66); settings: post; 1000 g/ha; assessed visually twenty days after spraying
Procedure, shortened: as §1

Avena fatua [10] = assay: as above; set-up: key: A rating of 0 indicates growth as untreated control; a rating of 9 indicates death; settings: post; 1000 g/ha; assessed visually twenty days after spraying
Procedure, shortened: as §1

Beta vulgaris [11] = assay: as above; set-up: key: A rating of 0 indicates growth as untreated control; a rating of 9 indicates death; settings: post; 1000 g/ha; assessed visually twenty days after spraying
Procedure, shortened: as §1

Echinochloa crus-galli [12] = assay: as above; set-up: key: A rating of 0 indicates growth as untreated control; a rating of 9 indicates death; settings: post; 1000 g/ha; assessed visually twenty days after spraying
Procedure, shortened: as §1

Linum usitatissimum [13] = assay: as above; set-up: key: A rating of 0 indicates growth as untreated control; a rating of 9 indicates death; settings: post; 1000 g/ha; assessed visually twenty days after spraying
Procedure, shortened: as §1

Oryza sativa [14] = assay: as above; set-up: key: A rating of 0 indicates growth as untreated control; a rating of 9 indicates death; settings: post; 1000 g/ha; assessed visually twenty days after spraying
Procedure, shortened: as §1

Sinapsis alba [15] = assay: as above; set-up: key: A rating of 0 indicates growth as untreated control; a rating of 9 indicates death; settings: post; 1000 g/ha; assessed visually twenty days after spraying
Procedure, shortened: as §1

Zea mays [16] = assay: as above; set-up: key: A rating of 0 indicates growth as untreated control; a rating of 9 indicates death; settings: post; 1000 g/ha; assessed visually twenty days after spraying
Procedure, shortened: as §1

Row | Structure (SMILES) | herbicidal effects on a 0-9 scale, AVEFA (Avena fatua [1]) | herbicidal effects on a 0-9 scale, BEAVA (Beta vulgaris [2]) | herbicidal effects on a 0-9 scale, ECHCG (Echinochloa crus-galli [3]) | herbicidal effects on a 0-9 scale, GLXMA (Glycine max [4]) | herbicidal effects on a 0-9 scale, LIUUT (Linum usitatissimum [5]) | herbicidal effects on a 0-9 scale, ORYSA (Oryza sativa [6]) | herbicidal effects on a 0-9 scale, SINAL (Sinapsis alba [7]) | herbicidal effects on a 0-9 scale, ZEAMX (Zea mays [8]) | herbicidal effects on a 0-9 scale, GLXMA (Glycine max [9]) | herbicidal effects on a 0-9 scale, AVEFA (Avena fatua [10]) | herbicidal effects on a 0-9 scale, BEAVA (Beta vulgaris [11]) | herbicidal effects on a 0-9 scale, ECHCG (Echinochloa crus-galli [12]) | herbicidal effects on a 0-9 scale, LIUUT (Linum usitatissimum [13]) | herbicidal effects on a 0-9 scale, ORYSA (Oryza sativa [14]) | herbicidal effects on a 0-9 scale, SINAL (Sinapsis alba [15]) | herbicidal effects on a 0-9 scale, ZEAMX (Zea mays [16])
1 | CC(NC(=O)c1nc(-c2ccccc2)ns1)c1cccs1 (racemic) [Example 4, (R/S)-3-Phenyl-[1,2,4]thiadiazole-5-carboxylic acid, [1-(2-thienyl)ethyl]amide] | 0 | 0 | 0 | 0 | 0 | 0 | 0 | 0 | 5 | 5 | 8 | 8 | 7 | 0 | 8 | 0
2 | CC(C)Cc1nsc(C(=O)NC(C)c2cccs2)n1 (racemic) [Example 12, (R/S)-3-Isobutyl-[1,2,4]thiadiazole-5-carboxylic acid, [1-(2-thienyl)ethyl]amide] | 0 | 5 | 5 | 0 | 2 | 0 | 5 | 0 | 5 | 2 | 8 | 9 | 8 | 0 | 9 | 0
3 | C[C@H](NC(=O)c1nc(-c2ccccc2)ns1)c1ccccc1 [Example 5] | 0 | 4 | 0 | 0 | 0 | 0 | 0 | 0 | 4 | 6 | 5 | 8 | 7 | 0 | 9 | 2
